Experimental data as given in patent US9314438B2, “Elevation of the plasma HDL-cholesterol level” (Aarhus Universitet, priority 2007, dated 2016).

What was measured:
[1] = tested on: normal Wistar rats given a normal chow diet; test: In vivo study: isosteviol treatment of normal Wistar rats on chow diet for 20 weeks (groups 1 and 2); conditions: for plasma HDL-cholesterol level increase, Δ in %: chow diet + isosteviol 0.03 g/kg/day
Source text: (§1) 44 normal wistar rats at the age of about 6 weeks and a bodyweight of about 230 g, was randomised into 4 groups, with 11 in each group. Group 1 and 2 were fed with standard chow diet±Isosteviol (0.03 g/kg/day). Group 3 and 4 were diet induced to be hyperlipidemic by feeding with a high cholesterol containing diet (1.63% g cholesterol, 0.41% g Cholic acid, 16.3% g sunflower oil)±Isosteviol (0.03 g/kg/day). In the experiment was used Isosteviol with a purity of 99.4%. The treatment period was 20 weeks.
(§2) Blood samples were analyzed for hormones and lipids at the start and end of the study. The blood samples were taken from the tail or eye into glasses containing heparine/aprotinin. The samples were centrifuged and the plasma was frozen. The following were analyzed: total fasting plasma triglyceride level, total plasma cholesterol level, and plasma HDL-cholesterol level. Liver samples were analysed for mRNA expression of genes like SREBP-1, which have relation to the fat metabolism. The body weight was measured throughout the study period together with the food intake.
(§3) The fasting total plasma cholesterol level and the HDL-cholesterol level were measured by an enzymatic colorimetric test, the “cholesterol CHOD-PAP” method (cholesterol oxidase±phenol 4 amino phenazon), based on Trinder, using commercially available test kits (Roche Diagnostics, Basel, Germany), and the Cobas Mira instrument (Roche Diagnostics). The fasting plasma triglyceride level was measured by the enzymatic colorimetric GPO-PAP method (Glycerol phosphate oxidase±phenol 4 amino phenazon), based on Trinder, using commercially available test kits (Roche Diagnostics, Basel, Germany), and the Cobas Mira instrument (Roche Diagnostics).
(§4) Data are expressed as means±standard error of the mean (SEM). Statistical significance between two groups was evaluated using a two-tailed t test. A p value of less than 0.05 was considered statistically significant. For statistical analysis were used student t-tests and two way ANOVA-tests.
(§5) The setup differs from the setup in Example 1 by the use of non-diabetic rats versus the diabetic hyperlipidemic KKAY mouse model. In the present study the effect on HDL is investigated by comparing rats with a normal cholesterol level with rats having a diet induced elevated plasma cholesterol level.

KKAy mice = test: In vivo study: isosteviol treatment of KKAy mice for 9 weeks (plasma lipids, body weight, food intake)
Method: Twenty male KKAy-mice (Clea Japan, Tokyo, Japan), all 5 week-old, weighing 22-25 g were randomized to 2 groups and treated for 9 weeks with; A: standard chow diet (control); B: standard chow diet+20 mg/kg BW of ISV. As a non-diabetic control group (C), ten normal C57BL-mice (Taconic, Ry, Denmark) were fed with standard chow diet (control to A), see FIG. 2 for outline of the study. The food intake was measured halfway through the study. The composition of the standard chow diet dry matter was: Protein 24%, carbohydrate 71%, and Lipids 5%. The drug isosteviol (ISV, ent-16-ketobeyeran-19-oic acid; Wako Pure Chemical Industries, Osaka, Japan) was incorporated in the mice food pellet and administered orally. The Danish Council for Animal experiments has approved the study.
Hormones and lipids were measured from blood sample at start and end of the treatment period. Blood sample was taken from the tail of the animals on chilled tubes containing heparin/aprotinin and centrifuged (4000 g, 60 seconds, 4° C.), and plasma was frozen for subsequent analysis of insulin, glucose, triglycerides, total cholesterol and HDL-cholesterol. Fasting blood glucose, as well as bodyweight (BW), was measured before and after intervention.
Plasma blood glucose was determined using the glucose oxidase method (GOD-PAP, Boehringer Mannheim, GmbH Germany). Insulin was determined by radioimmunoassay with a guinea pig antiporcine insulin antibody (PNILGP4, Novo Nordisk, Bagsvaerd, Denmark), and mono-[^125I]-(TyrA14) labeled human insulin (Novo Nordisk) as tracer and rat insulin (Novo Nordisk) as standard. We separated free and bound radioactivity using ethanol (See Heding L. G. Determination of total serum insulin (IRI) in insulin-treated diabetic patients; Diabetologia 1972; 8:260-266). Interassay and intra-assay variation was below 10%. […] The fasting plasma triglyceride level was measured by the enzymatic colorimetric GPO-PAP method (Glycerol phosphate oxidase±phenol 4 amino phenazon), based on Trinder, using commercially available test kits (Roche Diagnostics, Basel, Germany), and the Cobas Mira instrument (Roche Diagnostics). The fasting total plasma cholesterol level and the HDL-cholesterol level were measured by an enzymatic colorimetric test, the “cholesterol CHOD-PAP” method (cholesterol oxidase±phenol 4 amino phenazon), based on Trinder, using commercially available test kits (Roche Diagnostics, Basel, Germany), and the Cobas Mira instrument (Roche Diagnostics).
Data are expressed as means±standard error of the mean (SEM). Statistical significance between two groups was evaluated using a two-tailed t test. A p value of less than 0.05 was considered statistically significant. For plasma glucose calculations, analysis of covariance with adjustment for end body weight was performed.

[2] = tested on: normal Wistar rats given a high fat diet; test: In vivo study: isosteviol treatment of normal Wistar rats on high fat diet for 20 weeks (groups 3 and 4); conditions: for plasma HDL-cholesterol level increase, Δ in %: high fat diet + isosteviol 0.03 g/kg/day
Source text: as §1, §2, §3, §4, §5

[3] = tested on: patients at high risk for coronary events; conditions: phase 3 clinical trial, active treatment group; trial terminated; cited from earlier work
[4] = Chow +Isosteviol, end (20 weeks)
[5] = Chow +Isosteviol, start of study
[6] = start to end (20 weeks), listed as Isosteviol
[7] = chow diet + isosteviol, start to end (20 weeks)
[8] = comparing group 2 with group 1 at the end of the study period
[9] = group 2, chow + isosteviol, start to end (20 weeks)
[10] = KKAy mice, 20 mg/kg BW/day, after 9 weeks, n=10, in mM
[11] = High fat +Isosteviol, end (20 weeks)
[12] = High fat +Isosteviol, start of study
[13] = High fat +Isosteviol, start to end
[14] = high fat diet + isosteviol, start to end (20 weeks)

C[C@@]12CC[C@@H]3[C@@](CC[C@H]4[C@@]3(C)CCC[C@@]4(C)C(=O)O)(CC1=O)C2 (single isomer, unassigned; ent-16) [isosteviol, ent-16-ketobeyeran-19-oic acid]
HDL cholesterol, End [1, 4]: 1.42 ± 0.08 MM
Total Cholesterol, End [1, 4]: 1.67 ± 0.09 MM
HDL cholesterol, Start [1, 5]: 1.25 ± 0.06 MM
Total Cholesterol, Start [1, 5]: 1.61 ± 0.06 MM
HDL cholesterol Δ Abs ([1]; Chow +Isosteviol, start to end): 0.17 ± 0.04 mM
Total Cholesterol Δ Abs ([1]; Chow +Isosteviol, start to end): 0.07 ± 0.06 mM
plasma HDL-cholesterol level increase, Δ in % ([1]; start to end (20 weeks)): 14%
plasma HDL-cholesterol level increase, Δ in % [1, 6]: 14%
fasting total plasma cholesterol level increase, Δ in % [1, 7]: 4%
fasting total plasma cholesterol level Δ [1, 7]: 0.07 ± 0.06 mmol/L
fasting total plasma cholesterol level increase, Δ in % ([1]; chow diet + isosteviol, start to end (20 weeks), listed as Isosteviol): 4%
reduction in triglyceride concentration, Δchange in % [1, 8]: 61±18%
reduction in triglyceride concentration, Δchange in absolute values [1, 8]: -0.28 ± 0.10 mmol/L
body weight reduced by ([1]; group 2 (chow + isosteviol) compared to group 1 (chow control), 20 weeks): 16%
body weight, mean±SEM ([1]; group 2, chow + isosteviol, 10 weeks of treatment): 371 ± 10 g
body weight, mean±SEM ([1]; group 2, chow + isosteviol, after 20 weeks of treatment): 388 ± 13 g
change in the fasting plasma triglyceride concentration [1, 9]: -0.16 ± 0.09 mmol/L
decrease in the fasting plasma triglyceride concentration [1, 9]: 23%
deaths ([1]; group 2, chow diet + isosteviol, 20 weeks): No deaths
fasting plasma triglyceride (TG) level (KKAy mice; ISV group, age 5 week (start of treatment)): 1.25 mmol/L
fasting plasma triglyceride (TG) level (KKAy mice; ISV group, age 14 weeks (after 9 weeks treatment)): 2.02 mmol/L
TG level increase, age 14 weeks compared to age 5 week (KKAy mice; ISV group, KKAy control increased 192%): 62%
fasting total plasma cholesterol level increased by (KKAy mice; KKAy mice, 20 mg isosteviol/kg body weight/day in chow, after 9 weeks, vs KKAy control): 28%
fasting plasma HDL-cholesterol, mean±SEM (KKAy mice; [10]): 2.999±0.091
fasting plasma total cholesterol, mean±SEM (KKAy mice; [10]): 3.055±0.067
plasma HDL-cholesterol concentration increased by (KKAy mice; KKAy mice, 20 mg/kg BW/day, after 9 weeks, vs KKAy control): 71%
plasma TG decreased compared to the KKAy group (KKAy mice; after 9 weeks treatment): 48%
body weight (KKAy mice; after 9 weeks treatment, KKAy control 41.6 g): 36.3 g
reduction in weight (KKAy mice; end of the 9 week treatment period, vs KKAy control): 13%
HDL cholesterol, End [2, 11]: 2.45 ± 0.25 MM
Total Cholesterol, End [2, 11]: 4.46 ± 0.37 MM
HDL cholesterol, Start [2, 12]: 1.34 ± 0.06 MM
Total Cholesterol, Start [2, 12]: 1.68 ± 0.1 MM
HDL cholesterol Δ Abs [2, 13]: 1.11 ± 0.26 mM
Total Cholesterol Δ Abs [2, 13]: 2.77 ± 0.38 mM
deaths ([2]; group 4, high fat diet + isosteviol, 20 weeks, two deaths in group 3 without isosteviol): No deaths
plasma HDL-cholesterol level increase, Δ in % ([2]; start to end (20 weeks)): 88%
plasma HDL-cholesterol level increase, Δ in % [2, 6]: 88%
fasting total plasma cholesterol level increase, Δ in % [2, 14]: 175%
fasting total plasma cholesterol level Δ [2, 14]: 2.77 ± 0.38 mmol/L
plasma HDL-cholesterol level Δ (SEM) [2, 14]: 1.11 ± 0.26 mmol/L
fasting total plasma cholesterol level increase, Δ in % ([2]; high fat diet + isosteviol, start to end (20 weeks), listed as Isosteviol): 175%

CCOC(=O)N1c2ccc(C(F)(F)F)cc2[C@@H](N(Cc2cc(C(F)(F)F)cc(C(F)(F)F)c2)C(=O)OC)C[C@H]1CC [torcetrapib]
mortality [3]: increased mortality
